Data published in PubChem BioAssay (NCI).
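Five compound concentrations were applied to cells in 96-well plates for 48 hours; endpoints were derived by simple linear interpolation of the resulting dose-response curve. At the GI50, growth is halved. TGI marks complete inhibition of growth.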

Tests used:
Test in all cases: NCI tumour cell line growth inhibition, 48 h
[1] = test system: SNB-19 CNS
[2] = test system: NCI-H226 lung
[3] = test system: UO-31 renal
[4] = test system: HCT-116 colon
[5] = test system: TK-10 renal
[6] = test system: A549 NSCLC
[7] = test system: UACC-257 melanoma
[8] = test system: LOX IMVI melanoma
[9] = test system: UACC-62 melanoma
[10] = test system: NCI-H522 lung
[11] = test system: SK-OV-3 ovarian
[12] = test system: NCI-H460 lung
[13] = test system: SW-620 colon
[14] = test system: IGROV1 ovarian
[15] = test system: OVCAR-5 ovarian
[16] = test system: U251 CNS
[17] = test system: SF-295 CNS
[18] = test system: SR leukemia
[19] = test system: OVCAR-8 ovarian
[20] = test system: ACHN renal
[21] = test system: M14 melanoma
[22] = test system: MCF7 breast
[23] = test system: DU-145 prostate
[24] = test system: EKVX NSCLC
[25] = test system: SNB-75 CNS
[26] = test system: PC-3 prostate
[27] = test system: SK-MEL-2 melanoma
[28] = test system: COLO 205 colon
[29] = test system: HOP-62 NSCLC
[30] = test system: MALME-3M melanoma
[31] = test system: OVCAR-4 ovarian
[32] = test system: CAKI-1 renal
[33] = test system: OVCAR-3 ovarian
[34] = test system: SN12C renal
[35] = test system: HCC-2998 colon
[36] = test system: MDA-MB-435
[37] = test system: HL-60(TB) leukemia
[38] = test system: RXF 393 renal
[39] = test system: MOLT-4 leukemia
[40] = test system: NCI/ADR-RES ovarian
[41] = test system: HS 578T breast
[42] = test system: NCI-H23 lung
[43] = test system: T-47D breast
[44] = test system: K-562 leukemia
[45] = test system: RPMI-8226 leukemia
[46] = test system: MDA-MB-231 breast
[47] = test system: SK-MEL-5 melanoma
[48] = test system: SK-MEL-28 melanoma
[49] = test system: SF-539 CNS
[50] = test system: KM12 colon
[51] = test system: SF-268 CNS
[52] = test system: HCT-15 colon
[53] = test system: HT29 colon
[54] = test system: BT-549 breast
[55] = test system: 786-0 renal
[56] = test system: A498 renal
[57] = test system: CCRF-CEM leukemia
[58] = test system: HOP-92 NSCLC

Structure (SMILES): C/C(=C\CSCC(N)C(=O)O)CC/C=C(\C)CNc1ccccc1 (centres undefined)
- TGI [1]: > 100 µM
- TGI [2]: > 100 µM
- TGI [3]: > 100 µM
- TGI [4]: > 100 µM
- TGI [5]: > 100 µM
- TGI [6]: > 100 µM
- TGI [7]: > 100 µM
- TGI [8]: > 100 µM
- TGI [9]: > 100 µM
- TGI [10]: > 100 µM
- TGI [11]: > 100 µM
- TGI [12]: > 100 µM
- TGI [13]: > 100 µM
- TGI [14]: > 100 µM
- TGI [15]: > 100 µM
- TGI [16]: > 100 µM
- TGI [17]: > 100 µM
- TGI [18]: > 100 µM
- TGI [19]: > 100 µM
- TGI [20]: > 100 µM
- TGI [21]: > 100 µM
- TGI [22]: > 100 µM
- TGI [23]: > 100 µM
- TGI [24]: > 100 µM
- TGI [25]: > 100 µM
- TGI [26]: > 100 µM
- TGI [27]: > 100 µM
- TGI [28]: > 100 µM
- TGI [29]: > 100 µM
- TGI [30]: > 100 µM
- TGI [31]: > 100 µM
- TGI [32]: > 100 µM
- TGI [33]: > 100 µM
- TGI [34]: > 100 µM
- TGI [35]: > 100 µM
- TGI [36]: > 100 µM
- TGI [37]: > 100 µM
- TGI [38]: > 100 µM
- TGI [39]: > 100 µM
- TGI [40]: > 100 µM
- TGI [41]: > 100 µM
- TGI [42]: > 100 µM
- TGI [43]: > 100 µM
- TGI [44]: > 100 µM
- TGI [45]: > 100 µM
- TGI [46]: > 100 µM
- TGI [47]: > 100 µM
- TGI [48]: > 100 µM
- TGI [49]: > 100 µM
- TGI [50]: > 100 µM
- TGI [51]: > 100 µM
- TGI [52]: > 100 µM
- TGI [53]: > 100 µM
- TGI [54]: > 100 µM
- TGI [55]: > 100 µM

Structure (SMILES): O=P(O)(O)OCC1OC(n2cnc3c(NCc4ccccc4)ncnc32)C(O)C1O (centres undefined)
- GI50 [1]: 4.18 µM
- TGI [1]: > 100 µM
- GI50 [2]: 2.26 µM
- TGI [2]: 6.48 µM
- GI50 [3]: 3.38 µM
- TGI [3]: 32.4 µM
- GI50 [56]: 2.05 µM
- TGI [56]: 7.44 µM
- GI50 [4]: 1.66 µM
- TGI [4]: > 32.1 µM
- GI50 [5]: 2.15 µM
- TGI [5]: 30.2 µM
- GI50 [6]: 7.21 µM
- TGI [6]: > 88.4 µM
- GI50 [7]: > 75.2 µM
- TGI [7]: > 100 µM
- GI50 [8]: 0.334 µM
- TGI [8]: 1.47 µM
- GI50 [9]: 5.02 µM
- TGI [9]: > 100 µM
- GI50 [10]: 2.16 µM
- TGI [10]: 11.2 µM
- GI50 [11]: 2.73 µM
- TGI [11]: 11.1 µM
- GI50 [12]: 10.6 µM
- TGI [12]: > 59.3 µM
- GI50 [13]: 1.33 µM
- TGI [13]: > 73.9 µM
- GI50 [14]: 3.52 µM
- TGI [14]: 23 µM
- GI50 [15]: 3.11 µM
- TGI [15]: > 100 µM
- GI50 [16]: 5.21 µM
- TGI [16]: > 100 µM
- GI50 [17]: 3.09 µM
- TGI [17]: 21.8 µM
- GI50 [18]: 3.34 µM
- TGI [18]: > 64.2 µM
- GI50 [19]: 0.587 µM
- TGI [19]: 6.92 µM
- GI50 [20]: 1.4 µM
- TGI [20]: > 69.1 µM
- GI50 [21]: 2.68 µM
- TGI [21]: > 100 µM
- GI50 [22]: 1.31 µM
- TGI [22]: 19.3 µM
- GI50 [24]: 2.97 µM
- TGI [24]: 80.1 µM
- GI50 [25]: 0.987 µM
- TGI [25]: > 44.1 µM
- GI50 [26]: 1.2 µM
- TGI [26]: > 36.2 µM
- GI50 [27]: > 23.8 µM
- TGI [27]: > 84.4 µM
- GI50 [28]: 2.37 µM
- TGI [28]: 8.53 µM
- GI50 [29]: 1.74 µM
- TGI [29]: 27.9 µM
- GI50 [30]: 6.64 µM
- TGI [30]: > 100 µM
- GI50 [31]: 0.642 µM
- TGI [31]: 33.1 µM
- GI50 [57]: 3.76 µM
- TGI [57]: > 100 µM
- GI50 [32]: 1.4 µM
- TGI [32]: 14.3 µM
- GI50 [33]: 0.691 µM
- TGI [33]: 2.16 µM
- GI50 [34]: 0.509 µM
- TGI [34]: > 100 µM
- GI50 [35]: 2.01 µM
- TGI [35]: 11.8 µM
- GI50 [36]: 3.23 µM
- TGI [36]: > 100 µM
- GI50 [37]: 0.346 µM
- TGI [37]: > 100 µM
- GI50 [38]: 1.46 µM
- TGI [38]: 13.8 µM
- GI50 [39]: 0.673 µM
- TGI [39]: > 100 µM
- GI50 [40]: 1.19 µM
- TGI [40]: 30.7 µM
- GI50 [41]: 1.02 µM
- TGI [41]: 6.1 µM
- GI50 [42]: 1.97 µM
- TGI [42]: 31.4 µM
- GI50 [43]: 1.37 µM
- TGI [43]: 10.3 µM
- GI50 [58]: 2.14 µM
- TGI [58]: > 22.5 µM
- GI50 [44]: 2.52 µM
- TGI [44]: > 100 µM
- GI50 [45]: 3.97 µM
- TGI [45]: > 52.1 µM
- GI50 [46]: 0.35 µM
- TGI [46]: 1.35 µM
- GI50 [47]: 17 µM
- TGI [47]: > 100 µM
- GI50 [48]: 21.2 µM
- TGI [48]: > 100 µM
- GI50 [49]: 1.55 µM
- TGI [49]: 4.73 µM
- GI50 [50]: 12.7 µM
- TGI [50]: > 100 µM
- GI50 [51]: 2.03 µM
- TGI [51]: > 100 µM
- GI50 [52]: 1.19 µM
- TGI [52]: 16 µM
- GI50 [53]: 2.27 µM
- TGI [53]: > 36 µM
- GI50 [54]: 0.473 µM
- TGI [54]: 2.49 µM
- GI50 [55]: 2.83 µM
- TGI [55]: > 67.6 µM
